Source: ChEMBL document CHEMBL1201862, “PubChem BioAssay data set” (2004)
Active and inactive are the calls of the source.

Assays:
[1] = intracellular Trypanosoma cruzi inhibitors in host cells – cell-based, plate reader, cherry-pick samples, set 3, dose response (AID 651818); type: functional;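 also: compounds incubated with infected cells for about four days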
[2] = mouse fibroblast viability loss – cell-based, cherry-pick samples, set 2, cytotoxicity control for T. cruzi growth inhibitor project, dose response (AID 651817); type: functional; settings: NIH3T3
[3] = viability loss in LCL cells – cell-based, plate reader, dry powder, set 2, cytotoxicity control, dose response (AID 624367); type: functional
[4] = Dd2 malaria parasite growth inhibition potency – SYBR Green, dry powder samples, dose response (AID 1159566); type: functional, cell-based;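 also: potency for growth inhibition with lower SYBR green DNA signal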
[5] = toxicity to human hepatoma HepG2 cells – cell-based, cherry-picked samples, cytotoxicity control, dose response (AID 1159577); type: functional
[6] = toxicity to human HepG2 hepatoma cells – cell-based, plate reader, dry powder samples, cytotoxicity control, dose response (AID 1159569); type: functional;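 also: inhibitor potency with signal falling toward the positive control level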
[7] = growth inhibition of PfATP4-mutant resistant parasites – NITD609-resistant line, SYBR Green, dry powder, dose response (AID 1159571); type: functional, cell-based;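 also: parasites synchronized at ring stage by sorbitol before testing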
[8] = P. falciparum Dd2 growth inhibitors, dose response, SYBR Green, cherry-picked samples (AID 1159567); type: functional, cell-based
[9] = growth inhibition of yeast DHODH-expressing 3D7 parasites – SYBR Green, dry powder samples, dose response (AID 1159570); type: functional, cell-based;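 also: parasite growth measured after 72 hours of compound exposure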
[10] = target: Scavenger receptor class B member 1 (Mus musculus, UniProt Q61009); assay: mouse SR-BI DiI-HDL transfer blockers – ldlA[mSR-BI] CHO cells, fluorescence plate reader, dry powder, set 9, dose response (AID 623880); type: functional, cell-based
Scavenger receptor class B member 1, sequence (Q61009 whole entry): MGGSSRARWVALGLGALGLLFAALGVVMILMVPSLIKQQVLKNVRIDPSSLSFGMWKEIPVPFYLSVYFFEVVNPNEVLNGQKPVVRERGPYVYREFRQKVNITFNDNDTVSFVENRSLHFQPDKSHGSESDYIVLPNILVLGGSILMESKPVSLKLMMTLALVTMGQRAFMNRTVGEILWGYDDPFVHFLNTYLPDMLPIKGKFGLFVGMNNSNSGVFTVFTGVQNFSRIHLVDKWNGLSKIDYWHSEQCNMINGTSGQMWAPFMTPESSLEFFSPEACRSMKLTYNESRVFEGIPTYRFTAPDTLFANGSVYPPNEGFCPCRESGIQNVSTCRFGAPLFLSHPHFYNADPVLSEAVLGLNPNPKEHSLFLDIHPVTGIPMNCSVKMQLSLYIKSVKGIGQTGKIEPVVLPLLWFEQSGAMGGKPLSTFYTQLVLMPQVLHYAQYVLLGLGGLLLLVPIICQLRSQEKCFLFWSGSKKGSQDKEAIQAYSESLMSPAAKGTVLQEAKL

[11] = cell viability loss, ATP luminescence – CellTiter-Glo, 24 h, powder samples, set 7, cytotoxicity control for SR-BI HDL uptake inhibitor project, dose response (AID 624026); type: functional, cell-based
[12] = fungal growth arrest, C. neoformans – Alamar Blue, cherry-picks, dose response (AID 686998); type: functional, organism-based
A549 = assay: viability loss in A549 cells – cell-based, plate reader, cherry-pick samples, cytotoxicity control, dose response (AID 687028); type: functional; settings: Homo sapiens
[13] = HEK-293T viability loss after treatment – luminescence, T-cell screen hits, cytotoxicity control for TCR NF-kB inhibitor project, dose response (AID 489026); type: functional, cell-based;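 also: cells exposed to compound about 14 hours before the viability readout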
Vero = assay: viability loss in Vero cells – cell-based, plate reader, cherry-pick samples, cytotoxicity control, dose response (AID 687020); type: functional; settings: Chlorocebus sabaeus
[14] = HeLa cell viability loss – 24 h, dry powder, set 2, cytotoxicity control, dose response (AID 651774); type: functional, cell-based
[15] = target: FAD-linked sulfhydryl oxidase ALR (Homo sapiens, UniProt P55789); assay: ALR-catalysed DTT oxidation blockers – biochemical, H2O2 detection, luminescence, cherry-pick, dose response (AID 493248)
FAD-linked sulfhydryl oxidase ALR, sequence (P55789 whole entry): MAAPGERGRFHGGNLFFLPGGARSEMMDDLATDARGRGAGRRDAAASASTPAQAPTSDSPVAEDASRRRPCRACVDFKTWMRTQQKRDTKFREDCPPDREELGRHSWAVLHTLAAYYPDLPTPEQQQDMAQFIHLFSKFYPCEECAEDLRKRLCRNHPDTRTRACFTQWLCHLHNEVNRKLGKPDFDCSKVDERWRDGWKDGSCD

Beta Lactamase [16] = target: T1, Beta Lactamase (Pseudomonas aeruginosa, UniProt Q932Y6); assay: concentration-dependent VIM-2 enzyme inhibition – biochemical, epi-absorbance readout, selective inhibitors, dose response (AID 1919)
T1 sequence (Q932Y6 whole entry): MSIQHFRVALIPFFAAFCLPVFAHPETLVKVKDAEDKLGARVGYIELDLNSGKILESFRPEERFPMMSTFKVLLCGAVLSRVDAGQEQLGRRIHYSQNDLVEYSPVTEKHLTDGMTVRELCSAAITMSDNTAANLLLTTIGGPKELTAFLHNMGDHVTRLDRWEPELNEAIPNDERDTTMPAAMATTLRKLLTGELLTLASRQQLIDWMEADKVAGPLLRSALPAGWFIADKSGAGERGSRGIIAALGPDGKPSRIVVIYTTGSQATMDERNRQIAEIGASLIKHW

Beta-lactamase [17] = target: T2, Beta-lactamase (Pseudomonas aeruginosa, UniProt Q79MP6); assay: […] counterscreen for selective VIM-2 inhibitors: dose response biochemical high throughput screening assay to identify inhibitors of IMP-1 metallo-beta-lactamase.
T2 sequence (Q79MP6 whole entry): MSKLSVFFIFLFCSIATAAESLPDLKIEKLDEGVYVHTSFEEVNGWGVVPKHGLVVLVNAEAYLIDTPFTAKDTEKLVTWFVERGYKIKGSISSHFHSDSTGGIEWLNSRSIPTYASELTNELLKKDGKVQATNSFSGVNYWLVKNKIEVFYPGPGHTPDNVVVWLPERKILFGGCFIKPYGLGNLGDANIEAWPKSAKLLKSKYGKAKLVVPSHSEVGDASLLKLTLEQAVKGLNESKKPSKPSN

Beta-lactamase [18] = target: T2, Beta-lactamase; assay: inhibition of IMP-1 beta-lactamase activity – biochemical, epi-absorbance, selectivity assay for VIM-2 inhibitor project, dose response (AID 1920)
Beta-lactamase [19] = target: Beta-lactamase (Salmonella choleraesuis (strain SC-B67), UniProt Q5J463); assay: Epi-absorbance-based counterscreen for selective VIM-2 inhibitors: dose response biochemical high throughput screening assay to identify inhibitors of TEM-1 serine-beta-lactamase.
Beta-lactamase (Salmonella choleraesuis (strain SC-B67), UniProt Q5J463), sequence (Q5J463 whole entry): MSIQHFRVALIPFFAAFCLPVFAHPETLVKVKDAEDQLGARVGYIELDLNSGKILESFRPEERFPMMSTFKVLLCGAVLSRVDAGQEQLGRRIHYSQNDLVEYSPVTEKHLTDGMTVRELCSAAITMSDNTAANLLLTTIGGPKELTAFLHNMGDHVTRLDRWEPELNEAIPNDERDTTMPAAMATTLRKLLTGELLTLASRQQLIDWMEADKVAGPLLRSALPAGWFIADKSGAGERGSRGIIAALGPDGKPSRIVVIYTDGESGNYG

Beta Lactamase [20] = target: T1, Beta Lactamase; assay: VIM-2 CCF2 hydrolysis inhibition, assay artifact filter – biochemical, FRET readout, CCF2 substrate, artefact control for selective VIM-2 inhibitor project, dose response (AID 1926)

## C[C@@H]1CN([C@H](C)CO)C(=O)c2cccc(NC(=O)Nc3ccc(C(F)(F)F)cc3)c2O[C@H]1CN(C)Cc1ccc(Cl)c(Cl)c1
[1]
  AC50: 1.28 µM (active)
[2]
  AC50: 15.7 µM (active)

## N#C[C@H]1[C@H](c2ccc(C#Cc3ccccc3F)cc2)[C@H](CO)N1C(=O)c1cccnc1
[3]
  AbsAC35: 50.14 µM
[4]
  AC50: 1.59 µM (active)
[5]
  AC50: > 39 µM (inactive)
[6]
  AC50: > 100 µM (inactive)
[7]
  AC50: 1.54 µM (active)
[8]
  AC50: 1.58 µM (active)
[9]
  AC50: 1.83 µM (active)

## C[C@@H]1CN([C@H](C)CO)C(=O)c2cc(NC(=O)Nc3ccc(F)cc3)ccc2O[C@H]1CN(C)S(=O)(=O)c1ccc(Cl)cc1
[10]
  AC50: 0.113 µM (active)
[11]
  AC50: > 70 µM (inactive)

## CCC(=O)N1CCCC1(C)C(=O)Nc1ccc(C)c(C)c1 (configuration not stated)
[12]
  AC50: 93.7 µM (active)

## COc1ccc(OC)c(-c2nnc3n2N=C(c2ccc(OC)c(OC)c2)CS3)c1
A549
  AC50: 4.83 µM (active)
[13]
  IC50: > 80 µM (inactive)
Vero
  AC50: 23.2 µM (active)

## CNC(=O)Cc1ccc(-c2ccccc2)cc1
[14]
  AC50: > 70 µM (inactive)

## O=[N+]([O-])c1ccccc1/C=C/C=N/n1c(S)nnc1-c1ccccc1F
[15]
  AC50: 1.89 µM (active)
Beta Lactamase [16]
  IC50: > 59.6 µM (inactive)
Beta-lactamase [17]
  IC50: > 59.6 µM (inactive)
Beta-lactamase [18]
  IC50: > 59.6 µM (inactive)
Beta-lactamase [19]
  IC50: > 59.6 µM (inactive)
Beta Lactamase [20]
  IC50: > 6.63 µM (active)
